Assay results reported in ChEMBL document CHEMBL5352386 (Eur J Med Chem, 2022).

Tests used:
Cholinesterase [1] = molecular target: Cholinesterase (Equus caballus, UniProt P81908); experiment: Inhibition of equine serum BuChE using butyrylthiocholine iodide as substrate incubated for 10 mins followed by substrate addition by DTNB-reagent based Ellman's colorimetric assay
Cholinesterase [2] = molecular target: Cholinesterase (Homo sapiens, UniProt P06276); experiment: Inhibition of human BuChE using butyrylthiocholine iodide as substrate incubated for 10 mins followed by substrate addition by DTNB-reagent based Ellman's colorimetric assay
Cholinesterase (Homo sapiens, UniProt P06276), sequence (P06276 whole entry): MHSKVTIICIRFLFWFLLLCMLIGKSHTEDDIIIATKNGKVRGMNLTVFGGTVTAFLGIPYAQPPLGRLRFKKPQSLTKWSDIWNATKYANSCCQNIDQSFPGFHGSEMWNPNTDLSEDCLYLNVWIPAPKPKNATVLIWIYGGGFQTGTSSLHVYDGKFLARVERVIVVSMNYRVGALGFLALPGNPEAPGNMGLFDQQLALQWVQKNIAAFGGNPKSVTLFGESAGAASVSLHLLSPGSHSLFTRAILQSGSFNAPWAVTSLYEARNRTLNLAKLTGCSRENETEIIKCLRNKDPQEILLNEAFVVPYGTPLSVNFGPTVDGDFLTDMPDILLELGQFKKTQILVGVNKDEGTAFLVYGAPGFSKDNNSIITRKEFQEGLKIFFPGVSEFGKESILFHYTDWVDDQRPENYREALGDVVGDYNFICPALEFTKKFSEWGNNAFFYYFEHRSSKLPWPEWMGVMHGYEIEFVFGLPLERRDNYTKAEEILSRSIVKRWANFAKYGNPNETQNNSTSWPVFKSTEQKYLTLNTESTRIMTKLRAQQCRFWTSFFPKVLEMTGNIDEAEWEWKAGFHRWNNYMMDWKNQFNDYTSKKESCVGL

PC-12 = experiment: Cytotoxicity against rat PC12 cells assessed as survival rate at 100 uM measured after 24 hrs by MTT assay relative to control; settings: PC-12, 24 h, read-out: Survival
SH-SY5Y [3] = experiment: Cytotoxicity against human SH-SY5Y cells assessed as survival rate at 2.5 uM measured after 24 hrs by MTT assay relative to control; format: functional; settings: read-out: Survival
[4] = Cytotoxicity against mouse BV-2 cells assessed as survival rate at 100 uM measured after 24 hrs by MTT assay relative to control; format: toxicity, cell-based; settings: read-out: Survival
L02 [5] = experiment: Cytotoxicity against human L02 cells assessed as survival rate at 2.5 uM measured after 24 hrs by MTT assay relative to control; format: functional; settings: read-out: Survival
SH-SY5Y [6] = experiment: Cytotoxicity against human SH-SY5Y cells assessed as survival rate at 100 uM measured after 24 hrs by MTT assay relative to control; format: functional; settings: read-out: Survival
[7] = Cytotoxicity against mouse BV-2 cells assessed as inhibition of cell growth measured after 24 hrs by MTT assay; format: toxicity, cell-based
L02 [8] = experiment: Cytotoxicity against human L02 cells assessed as survival rate at 100 uM measured after 24 hrs by MTT assay relative to control; format: functional; settings: read-out: Survival

Cholinesterase (Equus caballus, UniProt P81908), sequence (P81908 whole entry): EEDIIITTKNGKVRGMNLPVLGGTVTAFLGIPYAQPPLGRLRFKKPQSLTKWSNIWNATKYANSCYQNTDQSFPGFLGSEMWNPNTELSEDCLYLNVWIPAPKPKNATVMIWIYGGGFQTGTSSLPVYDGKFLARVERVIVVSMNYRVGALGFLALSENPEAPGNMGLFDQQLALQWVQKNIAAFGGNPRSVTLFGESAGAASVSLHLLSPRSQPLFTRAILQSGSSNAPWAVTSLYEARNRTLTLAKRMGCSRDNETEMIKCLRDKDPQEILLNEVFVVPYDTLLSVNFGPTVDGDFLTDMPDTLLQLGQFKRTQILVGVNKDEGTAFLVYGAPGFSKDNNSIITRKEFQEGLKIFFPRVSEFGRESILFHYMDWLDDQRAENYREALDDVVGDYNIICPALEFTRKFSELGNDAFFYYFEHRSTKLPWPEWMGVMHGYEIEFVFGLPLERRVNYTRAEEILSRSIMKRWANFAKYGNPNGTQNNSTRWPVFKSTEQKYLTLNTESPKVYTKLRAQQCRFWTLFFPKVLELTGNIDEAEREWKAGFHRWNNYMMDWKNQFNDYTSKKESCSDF

| Structure (SMILES) | IC50 (Cholinesterase [1]) | IC50 (Cholinesterase [2]) | viability at 100 µM (PC-12) | viability at 2.5 µM (SH-SY5Y [3]) | viability at 24 h, 100 µM [4] | viability at 2.5 µM (L02 [5]) | viability at 100 µM (SH-SY5Y [6]) | IC50 at 24 h [7] | viability at 100 µM (L02 [8]) |
| --- | --- | --- | --- | --- | --- | --- | --- | --- | --- |
| N#Cc1cc(Cl)cc(NC(=O)Cn2c(-c3nonc3N)nc3ccccc32)c1 | 0.00204 µM | 0.0839 µM | 87% | 24.6% | 64.7% | 44.5% |  |  |  |
| Nc1nonc1-c1nc2ccccc2n1CC(=O)Nc1cc(F)cc(F)c1 | 0.058 µM | 3.68 µM | 84.4% |  |  |  | 56.2% | 25.4 µM | 60.6% |
